The values that follow come from patent US20240373846A1, “Herbicidal Compositions” (SYNGENTA CROP PROTECTION AG, priority 2021, published 2024).

What all share (assay): Post-emergence efficacy
Assay type in all cases: in vivo

For assay [1], the system named is Echinochloa crus-gali (ECHCG). As to conditions: 100=total damage to plant, 0=no damage. An excerpt:
(§1) When active ingredients are combined, the activity to be expected (E) for any given active ingredient combination obeys the so-called Colby Formula and can be calculated as follows (Colby, S. R., Calculating synergistic and antagonistic responses of herbicide combination, Weeds, Vol. 15, pages 20-22; 1967): • ppm=milligrams of active ingredient (a.i.) per litre • X=% action by first active ingredient using p ppm of the active ingredient • Y=% action by second active ingredient sing q ppm of the active ingredient.
(§2) According to Colby, the expected action of active ingredients A+B using p+q ppm of active ingredient is represented by the following formula: […]
(§3) If the action actually observed (O) is greater than the expected action E then the action of the combination is super-additive, i.e. there is a synergistic effect. In mathematical terms, synergism corresponds to a positive value for the difference of (O−E). In the case of purely complementary addition of activities (expected activity), said difference (O−E) is zero. A negative value of said difference (O−E) signals a loss of activity compared to the expected activity.
(§4) The efficacy of various compositions of the present invention were tested against plants including the following species: Amaranthus retroflexus (AMARE), Echinochloa crus-gali (ECHCG), Lolium multiflorum (LOLMU), Setaria faberi (SETFA), and Digitaria insularis (TRCIN). The compositions are applied post-emergence, and the tests evaluated at certain days-after-application (DAA) as indicated. The tests were evaluated (100=total damage to plant; 0=no damage to plant), and the results are shown below in tables B1 to B11 below.

Assay [2] deals with Amaranthus retroflexus (AMARE). The following applies: 100=total damage to plant, 0=no damage.
Source text: as §1, §2, §3, §4

Assay [3] relates to Digitaria insularis (TRCIN). The following applies: 100=total damage to plant, 0=no damage.
Source text: as §1, §2, §3, §4

For assay [4], the system named is Lolium multiflorum (LOLMU). As to conditions: Table B11, 15DAA, 100=total damage to plant, 0=no damage.
Source text: as §1, §2, §3, §4

For another assay, the system named is Setaria faberi (SETFA). The following applies: Table B8, 13 DAA, 100=total damage to plant, 0=no damage.
Source text: as §1, §2, §3, §4

On to `CCNc1nc(Cl)nc(NC(C)C)n1` [Formula B4c, atrazine], for which the Observed in assay [1] (Table B9, 20DAA, 500 g/ha) stood at 60.
Turning to `CCOC(=O)c1ccccc1S(=O)(=O)NC(=O)Nc1nc(Cl)cc(OC)n1` [Formula B3c, chlorimuron-ethyl], the Observed is reported as 88 in assay [2] (Table B6, 13DAA, 1.88 g/ha) and 83 in assay [2] (Table B6, 13DAA, 7.5 g/ha).
As to `CC#Cc1ccc(C2=C(OC(=O)OC)C3CCC(C3)C2=O)c(OC)c1` (stereo not shown) [Formula Ic], the Observed in assay [3] (Table B7, 16DAA, 3.125 g/ha) is reported as 15; in assay [4] (12.5 g/ha), 60; in assay [2] (Table B1, 13 DAA, 0.47 g/ha), 0; in assay [2] (Table B1, 13 DAA, 0.94 g/ha) it was 0; in assay [2] (Table B3, 13 DAA, 0.47 g/ha), 10; in assay [2] (Table B3, 13 DAA, 0.94 g/ha), 0. In addition, the Observed was determined as 7.5 in assay [2] (Table B6, 13DAA, 1.88 g/ha); 10 in assay [2] (Table B10, 13 DAA, 0.47 g/ha); 0 in assay [2] (Table B10, 13 DAA, 0.94 g/ha); 0 in assay [2] (Table B10, 13 DAA, 1.88 g/ha); 3 with Setaria faberi (SETFA) (0.47 g/ha); 0 in the assay with Setaria faberi (SETFA) (0.94 g/ha). Further, the Observed in the assay with Setaria faberi (SETFA) (1.88 g/ha) worked out at 0.
On to `CS(=O)(=O)c1ccc(C(=O)C2C(=O)CCCC2=O)c([N+](=O)[O-])c1` [Formula B1f, mesotrione], for which the Observed in assay [2] (Table B3, 13 DAA, 3.75 g/ha) was 18.
For the compound `CSc1nnc(C(C)(C)C)c(=O)n1N` [Formula B4g, metribuzin], the Observed in assay [2] (Table B10, 13 DAA, 7.5 g/ha) is reported as 0.
Regarding `Cn1nc(C(F)(F)F)c(CS(=O)(=O)C2=NOC(C)(C)C2)c1OC(F)F` [Formula B2d, pyroxasulfone], the Observed was 38 in assay [1] (Table B5, 15DAA, 125 g/ha) and 35 in assay [1] (Table B5, 15DAA, 250 g/ha).
Consider `COc1cc(OC)nc(NC(=O)NS(=O)(=O)c2ncccc2C(=O)N(C)C)n1` [Formula B3m, nicosulfuron], for which the Observed in the assay with Setaria faberi (SETFA) (0.94 g/ha), in the assay on Setaria faberi (SETFA) (1.88 g/ha) and in the assay with Setaria faberi (SETFA) (3.75 g/ha) was 0 each time.
Take `CCc1cnc(C2=NC(C)(C(C)C)C(=O)N2)c(C(=O)O)c1` (stereo not shown) [Formula B3j, imazethapyr]: the Observed was 30 in assay [3] (Table B7, 16DAA, 8 g/ha) and 53 in assay [3] (Table B7, 16DAA, 15 g/ha).
Take `COc1ccc(-n2c(=O)c(C(=O)C3C(=O)CCCC3=O)nc3c(Cl)cccc32)cc1` [Formula B1d, fenquinotrione]: the Observed in assay [3] (Table B2, 16DAA, 500 g/ha) came to 35; in assay [3] (Table B2, 16DAA, 1000 g/ha), 43.
As for `CCOCN(C(=O)CCl)c1c(C)cccc1CC` [Formula B2a, acetochlor], the Observed in assay [1] (Table B4, 15DAA, 4000 g/ha) came out at 50.
As to `FC(F)c1cc(-c2c(Cl)cccc2Oc2ncc(Cl)cn2)on1` [Formula B5d, rimisoxafen], in assay [4] (30 g/ha), the Observed amounted to 18.
Regarding bicyclopyrone [Formula B1b], the Observed came to 23 in assay [2] (Table B1, 13 DAA, 0.94 g/ha) and 45 in assay [2] (Table B1, 13 DAA, 1.88 g/ha).
